Counter-ions that a name gives are not always drawn.
Tests used:
neointima formation = conditions: in rats; Brooks E. E. et al., J. Biol. Chem. 1997; cited from earlier work
CDK2/cyclin A = CDK2/cyclin A (Homo sapiens, UniProt P24941); assay: Assay for Inhibition of CDK2/Cyclin A; assay type: biochemical; conditions: 20 ng CDK2/cyclin A, retinoblastoma protein substrate, [32P]ATP, 25° C. 15 minutes
Protocol: (§1) To determine the inhibitory potency and selectivity of compounds of the present invention against CDK4 and related kinases, compounds were evaluated in standard assays routinely used to measure inhibition of cyclin-dependent kinase enzymes and other protein kinases (see for example D. W. Fry et al., J. Biol. Chem. 2001, 276, 16617-16623). The assays were carried out as described below.
Assay for Inhibition of CDK2/Cyclin A
CDK2 enzyme assays for IC50 determinations and kinetic evaluation are performed as follows. 96-well filter plates (Millipore MADVN6550, Bedford, Mass.) are used. The final assay volume is 0.1 mL containing buffer A (20 mM TRIS (tris[hydroxymethyl]aminomethane) (pH 7.4), 50 mM NaCl, 1 mM dithiothreitol, 10 mM MgCl2), […] ATP containing 0.25 μCi [^32P]ATP, 20 ng CDK2/cyclin A, 1 μg retinoblastoma protein, and the test compound at appropriate dilutions in buffer A (Buffer A alone without added test compound was employed as a control for no inhibition. Buffer A containing excess ethylenediamine tetra acetic acid (EDTA) was used to determine the level of background ^32P in the absence of enzyme activity). All components except the ATP are added to the wells, and the plate is placed on a plate mixer for 2 minutes. The reaction is initiated by addition of [^32P]ATP, and the plate is incubated at 25° C. for 15 minutes. The reaction is terminated by addition of 0.1 mL 20% trichloroacetic acid (TCA). The plate is kept at 4° C. for at least 1 hour to allow the substrate to precipitate. The wells are then washed five times with 0.2 mL 10% TCA, and ^32P incorporation is determined with a beta plate counter (Wallac Inc., Gaithersburg, Md.). The IC50 of the test compound was determined using the median effect method (Chou, T-C and Talalay, P. Applications of the median effect principle for the assessment of low-dose risk of carcinogens and for the quantitation of synergism and antagonism of chemotherapeutic agents. In: New Avenues in Developmental Cancer Chemotherapy (Eds. Harrap, K. T. and Connors, T. A.), pp. 37-64. Academic Press, New York, 1987).

CDK4/Cyclin D = CDK4/Cyclin D (Homo sapiens, UniProt P11802); assay: Assay for Inhibition of CDK4/Cyclin D; assay type: biochemical; conditions: 20 ng CDK4, retinoblastoma protein substrate, 25 μM ATP, 25° C. 15 minutes
Sequence of CDK4/Cyclin D (P11802 whole entry, species assumed): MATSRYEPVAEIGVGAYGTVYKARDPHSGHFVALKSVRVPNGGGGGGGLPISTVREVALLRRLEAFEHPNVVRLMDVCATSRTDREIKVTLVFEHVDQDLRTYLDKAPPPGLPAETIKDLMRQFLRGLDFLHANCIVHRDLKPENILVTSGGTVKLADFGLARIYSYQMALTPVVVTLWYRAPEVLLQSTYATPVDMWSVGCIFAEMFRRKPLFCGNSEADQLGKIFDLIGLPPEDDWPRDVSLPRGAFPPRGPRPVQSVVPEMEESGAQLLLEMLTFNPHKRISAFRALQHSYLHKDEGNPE
Sequence of CDK4/Cyclin D (P24385 whole entry partner, species assumed): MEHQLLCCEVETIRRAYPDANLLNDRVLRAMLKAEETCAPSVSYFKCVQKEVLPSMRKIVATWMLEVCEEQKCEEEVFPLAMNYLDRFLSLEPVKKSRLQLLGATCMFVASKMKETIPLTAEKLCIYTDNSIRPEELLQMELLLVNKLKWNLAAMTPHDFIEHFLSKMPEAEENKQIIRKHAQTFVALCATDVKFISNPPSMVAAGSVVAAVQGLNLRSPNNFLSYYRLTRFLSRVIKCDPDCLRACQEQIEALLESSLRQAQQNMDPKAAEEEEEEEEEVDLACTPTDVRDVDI
Protocol: as §1
Assay for Inhibition of CDK4/Cyclin D
The CDK4 enzyme assay for IC50 determination and kinetic evaluation is performed as follows. 96-well filter plates (Millipore MADVN6550, Bedford, Mass.) are used. The total volume is 0.1 mL containing buffer A (20 mM TRIS (tris[hydroxymethyl]aminomethane)) (pH 7.4), 50 mM NaCl, 1 mM dithiothreitol, 10 mM MgCl2), 25 μM ATP containing 0.25 μCi [^32P]ATP, 20 ng CDK4, 1 μg retinoblastoma protein and the test compound at appropriate dilutions in buffer A. Buffer A alone without added test compound was employed as a control for no inhibition. Buffer A containing excess EDTA was used to determine the level of background ^32P in the absence of enzyme activity. All components except the ATP are added to the wells, and the plate is placed on a plate mixer for 2 minutes. The reaction is started by adding [^32P]ATP, and the plate is incubated at 25° C. for 15 minutes. The reaction is terminated by addition of 0.1 mL 20% trichloroacetic acid (TCA). The plate is kept at 4° C. for at least 1 hour to allow the substrate to precipitate. The wells are then washed five times with 0.2 mL 10% TCA, and ^32P incorporation is determined with a beta plate counter (Wallac Inc., Gaithersburg, Md.). The IC50 of the test compound was determined using the median effect method (Chou, T-C and Talalay, P. Applications of the median effect principle for the assessment of low-dose risk of carcinogens and for the quantitation of synergism and antagonism of chemotherapeutic agents. In: New Avenues in Developmental Cancer Chemotherapy (Eds. Harrap, K. T. and Connors, T. A.), pp. 37-64. Academic Press, New York, 1987).

Row | SMILES | inhibition of neointima formation (neointima formation) | IC50 (CDK2/cyclin A) [nM] | IC50 (CDK4/Cyclin D) [nM] | melting point [°C]
1 | COc1ccc(CNc2nc(N(CCO)CCO)nc3c2ncn3C(C)C)cc1 [CVT-313] | greater than 80% | – | – | –
2 | CC(C)n1c(=O)ccc2cnc(Nc3cccnc3)nc21 [Example 1, 8-Isopropyl-2-(pyridin-3-ylamino)-8H-pyrido[2,3-d]pyrimidin-7-one] | – | 235 | 535 | 156 to 158
3 | CC(=O)c1c(C)c2cnc(Nc3ccc(N4CCNCC4)nc3)nc2n(C2CCCC2)c1=O [Example 7, 6-Acetyl-8-cyclopentyl-5-methyl-2-(6-piperazin-1-yl-pyridin-3-ylamino)-8H-pyrido[2,3-d]pyrimidin-7-one] | – | 260 | 3 | 125
4 | CC(=O)c1c(C)c2cnc(Nc3ccc(N4CCOCC4)nc3)nc2n(C2CCCC2)c1=O [Example 5, 6-Acetyl-8-cyclopentyl-5-methyl-2-(6-morpholin-4-yl-pyridin-3-ylamino)-8H-pyrido[2,3-d]pyrimidin-7-one] | – | – | – | 224 to 226
5 | Cc1c(Br)c(=O)n(C2CCCC2)c2nc(Nc3ccc(N4CCNCC4)nc3)ncc12 [Example 6, 6-Bromo-8-cyclopentyl-5-methyl-2-(6-piperazin-1-yl-pyridin-3-ylamino)-8H-pyrido[2,3-d]pyrimidin-7-one] | – | 3200 | 22 | 290
6 | O=c1c(Br)cc2cnc(Nc3ccc(N4CCNCC4)nc3)nc2n1C1CCCC1 [Example 3, 6-Bromo-8-cyclopentyl-2-(6-piperazin-1-yl-pyridin-3-ylamino)-8H-pyrido[2,3-d]pyrimidin-7-one hydrochloride salt] | – | 190 | 12 | –
7 | Cc1c(Br)c(=O)n(C2CCCC2)c2nc(Nc3ccc(N4CCOCC4)nc3)ncc12 [Example 4, 6-Bromo-8-cyclopentyl-5-methyl-2-(6-morpholin-4-yl-pyridin-3-ylamino)-8H-pyrido[2,3-d]pyrimidin-7-one] | – | 1020 | 99 | 254 to 256
8 | COc1ccc(Nc2ncc3ccc(=O)n(C4CCCC4)c3n2)cn1 [Example 2, 8-Cyclopentyl-2-(6-methoxy-pyridin-3-ylamino)-8H-pyrido[2,3-d]pyrimidin-7-one] | – | 29 | 82 | 181 to 182

From patent US20050182078A1, “2-(Pyridin-3-ylamino)-pyrido[2,3-D]pyrimidin-7-ones” (WARNER-LAMBERT COMPANY, LLC, priority 2004, published 2005)
